According to PubChem BioAssay (NCI):
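Test compounds were applied to cells in 96-well plates for 48 hours at 5 doses. Here, GI50 denotes the concentration required for 50% inhibition of growth. TGI: total growth inhibition.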

Key:
Test in all cases: DTP human tumour cell line panel, 48 h
OVCAR-8 ovarian = tested on: OVCAR-8 ovarian
NCI-H522 lung = tested on: NCI-H522 lung
SNB-19 CNS = tested on: SNB-19 CNS
SNB-75 CNS = tested on: SNB-75 CNS
NCI-H23 lung = tested on: NCI-H23 lung
MALME-3M melanoma = tested on: MALME-3M melanoma
NCI-H226 lung = tested on: NCI-H226 lung
786-0 renal = tested on: 786-0 renal
RXF 393 renal = tested on: RXF 393 renal
SK-MEL-5 melanoma = tested on: SK-MEL-5 melanoma

SMILES	GI50 (OVCAR-8 ovarian)	TGI (OVCAR-8 ovarian)	GI50 (NCI-H522 lung)	TGI (NCI-H522 lung)	GI50 (SNB-19 CNS)	TGI (SNB-19 CNS)	GI50 (SNB-75 CNS)	TGI (SNB-75 CNS)	GI50 (NCI-H23 lung)	TGI (NCI-H23 lung)	TGI (MALME-3M melanoma)	GI50 (NCI-H226 lung)	TGI (NCI-H226 lung)	GI50 (786-0 renal)	TGI (786-0 renal)	GI50 (RXF 393 renal)	TGI (RXF 393 renal)	GI50 (SK-MEL-5 melanoma)	TGI (SK-MEL-5 melanoma)	GI50 (MALME-3M melanoma)
COc1ccc2c(c1)/C(=C/c1c(C)nc3sc(C)nn13)C(=O)N2	6.38 µM	> 100 µM	0.574 µM	5.93 µM	1.94 µM	> 37 µM	1.58 µM	7.14 µM	3.33 µM	> 65.5 µM	> 100 µM	> 28.4 µM	> 100 µM	6.08 µM	> 100 µM	17.6 µM	> 100 µM	1.5 µM	> 100 µM	
CO[C@H](C(=O)[C@@H](O)[C@@H](C)O)[C@@H]1Cc2cc3cc(O[C@H]4C[C@@H](O[C@H]5C[C@@H](O)[C@H](O)C(C)O5)[C@H](O)C(C)O4)c(C)c(O)c3c(O)c2C(=O)[C@H]1O[C@H]1C[C@@H](O[C@H]2C[C@@H](O[C@H]3C[C@](C)(O)C(=O)C(C)O3)[C@@H](O)C(C)O2)[C@H](O)C(C)O1 (some centres undefined)	0.0991 µM	> 33.2 µM	0.0288 µM	0.285 µM	0.0715 µM	> 33.2 µM	0.045 µM	0.211 µM	0.0771 µM	1.07 µM	0.28 µM	0.0457 µM	0.3 µM	0.101 µM	17.1 µM	0.0515 µM	0.119 µM	0.0385 µM	0.136 µM	0.0388 µM
Cc1nc2ccccc2c(N)c1-c1cc(C)c2c(C)nc3ccccc3c2n1	1.41 µM	2.95 µM	2.41 µM	> 20.5 µM	1.59 µM	3.39 µM	1.52 µM	3.16 µM	1.56 µM	3.24 µM	2.59 µM	1.44 µM	2.94 µM	1.16 µM	2.45 µM	0.182 µM	0.737 µM	18.2 µM	> 37.4 µM	1.27 µM
NC(=O)c1cccc2cn(-c3ccc([C@@H]4CCCNC4)cc3)nc12	12.4 µM	38.5 µM	20.4 µM	55.6 µM	17.1 µM	> 92.7 µM	11.8 µM	25.5 µM	11.3 µM	45 µM	30.5 µM	14.4 µM	30.1 µM	16.2 µM	33 µM	13.5 µM	27.1 µM	13.8 µM	27 µM	15.2 µM
CCCCC(=O)OCC(=O)[C@]1(O)Cc2c(O)c3c(c(O)c2[C@@H](OC2CC(NC(=O)C(F)(F)F)C(O)C(C)O2)C1)C(=O)c1c(OC)cccc1C3=O (some centres undefined)		> 39.6 µM		3.9 µM		3.02 µM		4.37 µM		1.98 µM	2.76 µM		0.192 µM		1.35 µM		2.62 µM		1.64 µM	
CC(C)=CC(=O)C1c2cccc(O)c2C(=O)c2c(O)cc(C)cc21 (centres undefined)		7.58 µM		3.85 µM		16.3 µM		4.68 µM		6.55 µM	7.93 µM		4.65 µM		16.1 µM		4.39 µM		4.06 µM	
Cc1cc(I)cc(CN(C)CCCCN2CCCCC2)c1O	36.5 µM	> 100 µM	17.2 µM	38.2 µM	19 µM	45.9 µM	15 µM	32.8 µM	24.7 µM	> 100 µM	28 µM	25.7 µM	> 100 µM	12.6 µM	25.4 µM	12.9 µM	32.6 µM	3.33 µM	10.7 µM	12.7 µM
COC1=CC(c2ccc[nH]2)=N/C1=C\c1[nH]c(C)c(C(=O)OC(C)C)c1C	0.0397 µM	1.04 µM	0.0445 µM	0.637 µM	0.866 µM	34.9 µM	0.0805 µM	1.96 µM	0.0702 µM	1.74 µM	2.19 µM	0.0795 µM	1.28 µM	0.0476 µM	1.03 µM	0.0584 µM	1.03 µM	0.0242 µM	0.0773 µM	0.456 µM
COc1cc(/C=N/NC(=O)c2ccc(C(F)(F)F)nc2Nc2ccc(Cl)cc2C)ccc1O	1.6 µM	13.5 µM	3.31 µM	14.2 µM	3.73 µM	14.5 µM	4.79 µM	21.3 µM	3.63 µM	16.7 µM	10.9 µM	1.28 µM	5.01 µM	2.64 µM	9.93 µM	3.2 µM	14.3 µM	1.41 µM	3.28 µM	2.19 µM
O=CC[C@H]1C(=O)C[C@@H]2CCC[C@@H]21		> 100 µM		> 100 µM		> 100 µM		> 100 µM		> 100 µM	> 100 µM		> 100 µM		> 100 µM		> 100 µM		> 100 µM	
COc1ccc2c3c1C(=O)CCCC3CO2 (centres undefined)		> 100 µM		> 100 µM		> 100 µM		> 100 µM		> 100 µM	> 100 µM		> 100 µM		> 100 µM		> 100 µM		> 100 µM	
CCN(CCO)CC1CCCC2CCCCC21 (centres undefined)		> 100 µM		> 100 µM		> 100 µM		> 100 µM		> 100 µM	> 100 µM		> 100 µM		> 100 µM		> 100 µM		> 100 µM	
O=C(O)c1ccccc1[Se][Se]c1ccccc1C(=O)O		> 100 µM		> 100 µM		45 µM		> 100 µM		> 100 µM	> 100 µM		31.4 µM		> 100 µM		> 100 µM		> 100 µM	
O=C(CC1(O)C(=O)Nc2c(Cl)cc(Cl)cc21)c1ccc(Br)cc1Br (centres undefined)		17.6 µM		8.05 µM		41 µM		36.6 µM		21.2 µM	23.7 µM		34.8 µM		25.5 µM		26.2 µM		14.6 µM	
C=C1C(=O)C23CC1CCC2C12CO[C@@H]4OCC(C)(CC[C@@H]1OC3=O)C42 (some centres undefined)		9.78 µM		2.33 µM		20.3 µM		30.8 µM		16.6 µM	4.14 µM		38.4 µM		5.71 µM		6.72 µM		28.3 µM	
